EC50 and CC50 data for eleven compounds are collected here from ChEMBL document CHEMBL1134026, “Synthesis and evaluation of novel amidate prodrugs of PMEA and PMPA” (Bioorg Med Chem Lett, 2001).

Data set [1] deals with CCRF-CEM. Put plainly: In vitro antiviral activity against HIV-2 in CEM cells. It counts as functional, cell-based. As to conditions: Homo sapiens.
The test system of data set [2] is MT4. Put plainly: In vitro antiviral activity against HIV-1 in MT-4 cells. It counts as functional, cell-based. The following applies: Homo sapiens.
The subject of data set [3] is MT4. The data set is described as follows: In vitro antiviral activity against HIV-2 in MT-4 cells. It is filed as functional, cell-based. The following applies: Homo sapiens.
A short description of data set [4]: In vitro cytotoxic concentration against MT-4 cells. It counts as cell-based, MT4. As to conditions: human.
The test system of data set [5] is CCRF-CEM. Put plainly: In vitro antiviral activity against HIV-1 in CEM cells. It is filed as functional, cell-based. As to conditions: Homo sapiens.
A short description of data set [6]: In vitro cytotoxic concentration against CEM cells. It is filed as cell-based, CCRF-CEM. The following applies: human.

Molecules are shown by their SMILES.

What is called EC50 is the concentration at which the effect is half-maximal. Low readings indicate a more potent agent, high ones a less potent agent. The CC50 is the concentration at which the toxic effect on the cells reaches its halfway point. Low values mean greater toxicity to the cells, high ones lower toxicity to the cells.

For the compound `COC(=O)[C@@H](Cc1ccccc1)NP(=O)(CO[C@H](C)Cn1cnc2c(N)ncnc21)Oc1ccc(Cl)cc1` (stereo partly specified), the EC50 in data set [1] was found to be 0.06 µM; in data set [2] it was 0.04 µM; in data set [3] it was 0.07 µM; in data set [5], 0.07 µM. In addition, the CC50 in data set [4] came to 64 µM; in data set [6], 26 µM.
With `COC(=O)[C@H](C)NP(=O)(COCCn1cnc2c(N)ncnc21)Oc1ccccc1` (stereo partly specified), the EC50 in data set [1] was 6 µM; in data set [2], 15 µM; in data set [3], 7.2 µM; in data set [5], 5 µM. The CC50 in data set [4] was determined as 120 µM; in data set [6], 67 µM.
As for `COC(=O)[C@H](C)NP(=O)(CO[C@H](C)Cn1cnc2c(N)ncnc21)Oc1ccccc1` (stereo partly specified), the EC50 in data set [1] is 0.38 µM; in data set [2], 0.99 µM; in data set [3], 0.65 µM; in data set [5] it was 0.5 µM. Also, the CC50 in data set [4] worked out at 213 µM; in data set [6], 125 µM.
On to `COC(=O)[C@@H](C)NP(=O)(COCCn1cnc2c(N)ncnc21)Oc1ccccc1` (stereo partly specified), for which the EC50 in data set [1] came out at 0.2 µM; in data set [2] it was 0.23 µM; in data set [3], 0.15 µM; in data set [5] it was 0.12 µM. In addition, the CC50 in data set [4] came to 5.1 µM; in data set [6] it was 3.7 µM.
Take `COC(=O)[C@@H](C)NP(=O)(CO[C@H](C)Cn1cnc2c(N)ncnc21)Oc1ccc(Cl)cc1` (stereo partly specified): the EC50 in data set [1] was 0.12 µM; in data set [2], 0.15 µM; in data set [3], 0.26 µM; in data set [5], 0.2 µM. Also, the CC50 in data set [4] was found to be 57 µM; in data set [6], 106 µM.
Take `COC(=O)CNP(=O)(CO[C@H](C)Cn1cnc2c(N)ncnc21)Oc1ccccc1` (stereo partly specified): the EC50 in data set [1] stood at 0.31 µM; in data set [2] it was 0.58 µM; in data set [3], 0.15 µM; in data set [5] it was 0.23 µM. Also, the CC50 was found to be 102 µM in data set [4] and 88.5 µM in data set [6].
Turning to `C[C@H](Cn1cnc2c(N)ncnc21)OCP(=O)(Oc1ccccc1)Oc1ccccc1`, the EC50 is 4 µM in data set [1], 6.2 µM in data set [2], 4.9 µM in data set [3] and 4 µM in data set [5]. Also, the half-maximal cytotoxic concentration (CC50) in data set [4] and in data set [6] was > 250 µM in each case.
Take `COC(=O)CNP(=O)(COCCn1cnc2c(N)ncnc21)Oc1ccccc1` (stereo unspecified): the 50% effective concentration (EC50) worked out at 4.5 µM in data set [1], 3.6 µM in data set [2], 4.8 µM in data set [3] and 5.6 µM in data set [5]. Further, the results for the CC50 in data set [4] and in data set [6] were 120 µM and 80 µM, respectively.
For `COC(=O)[C@@H](C)NP(=O)(CO[C@H](C)Cn1cnc2c(N)ncnc21)Oc1ccccc1` (stereo partly specified), the EC50 in data set [1] is 0.09 µM; in data set [2], 0.029 µM; in data set [3], 0.026 µM; in data set [5] it was 0.053 µM. For the same compound, the CC50 in data set [4] amounted to 71.4 µM; in data set [6], 27 µM.
With `Nc1ncnc2c1ncn2CCOCP(=O)(O)O` [ADEFOVIR], the EC50 stood at 10 µM in data set [1], 7 µM in data set [2], 7.5 µM in data set [3] and 7 µM in data set [5]. Besides, the figures for the half-maximal cytotoxic concentration (CC50) in data set [4] and in data set [6] were 144 µM and 69 µM, respectively.
On to `C[C@H](Cn1cnc2c(N)ncnc21)OCP(=O)(O)O` [TENOFOVIR ANHYDROUS], for which the EC50 came out at 3.67 µM in data set [1], 2.3 µM in data set [2], 1.4 µM in data set [3] and 3.67 µM in data set [5]. For the same compound, the values for the CC50 in data set [4] and in data set [6] were 197 µM and > 250 µM, respectively.
